By Ki is commonly meant the equilibrium dissociation constant of an inhibitor or competing ligand from its target. The term EC50 denotes the concentration that produces a half-maximal response. As a reminder, the Emax is the greatest response seen or fitted, relative to the assay's reference.

Here are results for 24 compounds from US8227414B2 ([…].R.L., priority 2005, dated 2012).

One series concerns mouse vas deferens. Nature of the series: Inhibition of the twitch induced by electrical stimulation of mouse vas deferens. The class given is cell-based.
In series [1] the test system is mice. Nature of the series: Food intake in fed mice. Type of series: in vivo, mouse. The source says: 2) measurement of food intake in fed animals, as described by Rizzi et al. (National Congress of the Italian Society of Neuroscience and joint Italian-Swedish Neuroscience Meetings, Ischia (Napoli) 1-4 Oct. 2005);
The test system of series [2] is mice. The series can be described thus: Spontaneous locomotor activity in mice. Type of series: in vivo, mouse. As for the experimental part: Control animals received one i.c.v. injection of saline (2 μl/mouse). Each point represents the mean±s.e.m. of at least 4 experiments.
3) assay for measurement of spontaneous locomotor activity, as described by Rizzi et al., (Naunyn Schmiedebergs Arch Pharmacol 363, 161-165, 2001.

Series [3] in a line: Metabolic stability in mouse plasma. The class given is in vitro ADME. The note with it: for half-life at 6 μg/μl: male, Swiss, mouse, plasma, pH 7.4, mouse plasma. As for the experimental part:
(§1) Plasma and brain tissue samples were obtained from male Swiss mice (Morini, Reggio Emilia, Italy, 25-30 g). The animal, sacrificed by ether anesthesia, was perfused with physiological heparin solution injected through a needle placed in the left ventricle. Blood was then withdrawn and was centrifuged at 14000×g for 2 minutes at room temperature. After separation from the pellet, the plasma was aliquoted and stocked at −80° C. After blood withdrawal, the animal was perfused further with a physiological solution for 2 minutes before brain removal. The brain tissue was homogenized in 5 vol. (w/v) of Tris/HCl (50 mM, pH 7.4, 0° C.) with a ultra-Turrax (Janke Kunkel, Staufen, FRG) 3 times for 15 seconds each. The supernatant obtained by centrifugation (3000×g for 15 min at 4° C.) was decanted and then stocked at −80° C.
(§2) The protein content of the preparations, determined by the Bradford method, as described in Anal. Biochem., 72, 248-254, 1976, was approximately 8 μg/μl for the brain homogenate and 17 μg/μl for the plasma
(§3) An aliquot of 100 μl solution of each peptide (3 mg/500 μl Tris) was incubated (at a final concentration of […]) with brain homogenate or plasma (450 μl) in a total volume of 1 ml, containing Tris/HCl 50 mM pH 7.4 buffer. Incubation of the aliquots was carried out at 37° C. for various periods up to 240 min. At different incubation times, an aliquot of the solution (100 μl) was removed and the degradation was blocked by addition of 4.5% TFA solution (200 μl). After centrifugation (3000 rpm for 15 minutes) an aliquot (100 μl) of supernatant was injected into RP-HPLC. HPLC analysis was performed in a Kromasil 100-5C18 column (4.6×250 mm) using a Beckman System Gold chromatography system equipped with a variable wave length UV detector.
(§4) The experimental conditions for elution included a gradient analysis with water (solvent A) and acetonitrile (solvent B), both containing 0.1% TFA, at a flow rate of 0.7 ml/min. The following protocol was used for gradient analysis, selected on the basis of the physico-chemical characteristics of the analyte: linear gradient from 5% to 40% B in 20 minutes; linear gradient from 40% to 60% B in 5 minutes; linear gradient from 60% to 5% B in 5 minutes. The eluate was monitored at 220 nm. The half life (T1/2) was obtained by linear regression with the least square method, diagramming the peak areas of each derivative as a function of the incubation times, using at least five points for each analysis.

A short description of series [4]: Metabolic stability in mouse brain homogenate. The class given is in vitro ADME. As to conditions: male, Swiss, pH 7.4, mouse brain homogenate, 37° C., mean±standard deviation, read-out: T½ Brain. As for the experimental part: as §1, §2, §3, §4
Series [5] deals with T1, human recombinant NOP receptor (Homo sapiens, UniProt P41146).
T1 construct: expressed in transfected cells; host or cells: CHO cells (CHOhNOP), membranes
The series can be described thus: Receptor binding, displacement of tritiated N/OFQ on CHOhNOP membranes. The note with it: Receptor binding PKi, Table 1; membrane of CHOhNOP cells; tritiated N/OFQ.

The target of series [6] is T1, human recombinant NOP receptor. Nature of the series: Stimulation of GTP?S binding on CHOhNOP membranes. Type of series: biochemical.
Series [7] deals with vas deferens of knockout mice for the NOP receptor (NOP−/−). The series can be described thus: Electrically stimulated vas deferens from NOP receptor knockout mice. The class given is cell-based, mouse. The note with it: Table 2.
The mark [8] stands for this setting: Table 2, wild type (NOP+/+) mice.
[9] abbreviates: 37° C., mean±standard deviation, read-out: T½ Plasma.
Setting [10] is: compared with N/OFQ maximal effect.

Like-named read-outs stand apart in the source and are kept apart here. Ends that are not written are not given here. Peptide text beside a SMILES is read from it.

T1 sequence (P41146 whole entry): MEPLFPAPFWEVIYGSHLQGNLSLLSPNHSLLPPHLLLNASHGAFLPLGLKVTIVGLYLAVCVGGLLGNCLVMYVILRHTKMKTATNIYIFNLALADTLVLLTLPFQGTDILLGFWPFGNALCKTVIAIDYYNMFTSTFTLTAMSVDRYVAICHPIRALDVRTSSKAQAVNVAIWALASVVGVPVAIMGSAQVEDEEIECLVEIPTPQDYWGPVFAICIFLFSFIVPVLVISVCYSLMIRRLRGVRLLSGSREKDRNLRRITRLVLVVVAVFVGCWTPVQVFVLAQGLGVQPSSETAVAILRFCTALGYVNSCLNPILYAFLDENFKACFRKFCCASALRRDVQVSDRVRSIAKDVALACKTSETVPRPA
Description for mouse vas deferens: The compounds were tested in vitro on Hamster oocytes membranes expressing the human recombinant NOP receptor (CHOhNoP) (receptor binding experiments and GTP?S binding stimulation experiments) and on the mouse vas deferens after electrical stimulation.

For the compound `CC(C)C[C@H](NC(=O)[C@H](CCCCN)NC(=O)[C@H](CCCNC(=N)N)NC(=O)[C@H](C)NC(=O)[C@H](CO)NC(=O)[C@H](CCCCN)NC(=O)[C@H](CCCNC(=N)N)NC(=O)[C@H](C)NC(=O)CNC(=O)[C@@H](NC(=O)[C@H](Cc1ccccc1)NC(=O)CNC(=O)CNC(=O)[C@@H](N)Cc1ccccc1)[C@@H](C)O)C(=O)N[C@@H](C)C(=O)N[C@@H](CC(N)=O)C(=O)N[C@@H](CCC(N)=O)C(=O)O` [N/OFQ, reference compound], the “Inhibition of the twitch induced by electric stimulation, Agonist Emax” value with mouse vas deferens (Table 1) is recorded as −84 ± 3%. Also, the “Inhibition of the twitch induced by electric stimulation, Agonist pEC50” value in the series with mouse vas deferens (Table 1) is 7.39. In addition, the “Emax NOP+/+” value in the series with mouse vas deferens (setting [8]) is on record as 84 ± 4%. In addition, the “Hyperphagic effects in NOP−/− mice” value in the series on mice [1] (NOP−/− mice) is listed as “absent”. Moreover, the “Effect on food intake” value with mice [1] (fed mice, equi-effective doses) was “significant increase”. Further, in the series on mice [2] (10 nmol i.c.v.), the “Time after i.c.v. injection at which locomotor effect ended” value turned out to be 60 min. In addition, the “Effect on spontaneous locomotor activity” value in the series on mice [2] (i.c.v., N/OFQ 10 nmol, UFP-112 0.1 nmol) was “inhibited the locomotor activity”. Moreover, the values for the half-life at 6 μg/μl in series [3] (setting [9]), in series [3] (read-out: Half life in the plasma (converted)) and in series [4] were 1.07 ± 0.0167 h, around 1 h and around 0.05 h, respectively.
Turning to `C[C@H](NC(=O)[C@H](CO)NC(=O)[C@H](CCCCN)NC(=O)[C@H](CCCNC(=N)N)NC(=O)C(C)(C)NC(=O)CNC(=O)[C@@H](NC(=O)[C@H](Cc1ccc(F)cc1)NC(=O)CNC(=O)CNC[C@@H](N)Cc1ccccc1)[C@@H](C)O)C(=O)N[C@@H](CCCNC(=N)N)C(=O)N[C@@H](CCCCN)C(=O)N[C@@H](CCCNC(=N)N)C(=O)N[C@@H](CCCCN)C(=O)N[C@@H](CC(N)=O)C(=O)N[C@@H](CCC(N)=O)C(N)=O` [UFP-113, [Phe^1?(CH2—NH)Gly^2,(pF)Phe^4,Aib^7,Arg^14,Lys^15]N/OFQ-NH2] (HELM PEPTIDE1{[N[C@H](CNCC(=O)[*:2])Cc1ccccc1].G.[O=C([C@H](Cc1ccc(F)cc1)N[*:1])[*:2]].T.G.[Aib].R.K.S.A.R.K.R.K.N.Q.[am]}$$$$V2.0), the Ki in series [5] was 0.055 nM. The EC50 in series [6] was 0.191 nM. For the same compound, the “Functional behaviour in GTP?S binding” value in series [6] (setting [10]) is listed as “partial NOP receptor agonist”. Further, in series [6] (read-out: Stimulation upon binding GTP?S, Agonist Emax), the Emax came to 79 ± 3%. For the same compound, the “Inhibition of the twitch induced by electric stimulation, Agonist pEC50” value in the series with mouse vas deferens (Table 1) is reported as “Variable agonist effects”. Also, in the series on mouse vas deferens (Table 1, against N/OFQ), the “Inhibition of the twitch induced by electric stimulation, Antagonist pA2” value stood at 9.28. For the same compound, the “Functional behaviour in mouse vas deferens” value in the series with mouse vas deferens (setting [10]) is on record as “partial NOP receptor agonist”. Further, the half-life at 6 μg/μl was 1.83 ± 0.167 h in series [3] (setting [9]) and 0.205 ± 0.0133 h in series [4]. Moreover, the “Plasma T½ compared to N/OFQ” value in series [3] (mouse plasma) was “about twice as long”.
Consider “DPDPE [[D-Pen^2,D-Pen^5]-Enkephalin, reference compound]”, for which, in the series with mouse vas deferens (setting [8]), the “Emax NOP+/+” value is 93 ± 3% and the “pEC50 NOP+/+” value stood at 8.40. Besides, in series [7], the “Emax NOP−/−” value was 91 ± 5% and the “pEC50 NOP−/−” value is recorded as 8.20.
“N/OFQ-NH2 (FGGFTGARKSARKLANQ-NH2; UniProt Q13519 130-146, looked up) [reference compound]” had an Emax with mouse vas deferens of 93 ± 2%.
In the case of “[(aMe)D/L-Leu^7]N/OFQ-NH2 [[(aMe)D/L-Leu^7]N/OFQ-NH2 (diastereomer 1)]”, in the series on mouse vas deferens (Table 4), the Emax is on record as 84 ± 1% and the “pEC50 (CL 95%)” value is listed as 7.33 (7.04-7.62).
The corresponding values for “[(aMe)D/L-Leu^7]N/OFQ-NH2 [[(aMe)D/L-Leu^7]N/OFQ-NH2 (diastereomer 2)]” are 95 ± 2% and 7.12 (7.02-7.22).
In the same order, the values of [(aMe)D/L-Leu^11]N/OFQ-NH2 are 91 ± 4% and 7.87 (7.67-8.07).
In the same order, the values of “[(aMe)D/L-Val^7]N/OFQ-NH2 [[(aMe)D/L-Val^7]N/OFQ-NH2 (diastereomer 1)]” are 88 ± 1% and 7.26 (7.00-7.52).
On to “[(aMe)D/L-Val^7]N/OFQ-NH2 [[(aMe)D/L-Val^7]N/OFQ-NH2 (diastereomer 2)]”, for which, in the series with mouse vas deferens (Table 4), the Emax was 95 ± 1% and the “pEC50 (CL 95%)” value is 7.56 (7.34-7.78).
The corresponding values for “[(aMe)D/L-Val^11]N/OFQ-NH2 [[(aMe)D/L-Val^11]N/OFQ-NH2 (diastereomer 1)]” are 93 ± 2% and 7.71 (7.37-8.05).
The corresponding values for “[(aMe)D/L-Val^11]N/OFQ-NH2 [[(aMe)D/L-Val^11]N/OFQ-NH2 (diastereomer 2)]” are 86 ± 4% and 7.83 (7.67-7.99).
In the same order, the values of [Ac3c^7]N/OFQ-NH2 are 98 ± 1% and 7.08 (6.82-7.34).
[Ac3c^11]N/OFQ-NH2: in the series on mouse vas deferens (Table 4), the Emax was 91 ± 4% and the “pEC50 (CL 95%)” value was 7.78 (7.62-7.94).
In the case of [Ac5c^7]N/OFQ-NH2, in the series with mouse vas deferens (Table 4), the Emax came out at 98 ± 1% and the “pEC50 (CL 95%)” value is listed as 7.60 (7.40-7.80).
[Ac5c^11]N/OFQ-NH2: in the series on mouse vas deferens (Table 4), the Emax is reported as 89 ± 4% and the “pEC50 (CL 95%)” value is 8.08 (7.93-8.23).
For the compound [Ac6c^7]N/OFQ-NH2, in the series on mouse vas deferens (Table 4), the Emax came to 87 ± 1% and the “pEC50 (CL 95%)” value is given as 7.20 (6.86-7.54).
The corresponding values for [Ac6c^11]N/OFQ-NH2 are 89 ± 4% and 7.79 (7.53-8.05).
The corresponding values for [Deg^7]N/OFQ-NH2 are 89 ± 2% and 7.91 (7.53-8.27).
With [Deg^11]N/OFQ-NH2, in the series on mouse vas deferens (Table 4), the Emax amounted to 87 ± 4% and the “pEC50 (CL 95%)” value was 7.75 (7.43-7.89).
In the same order, the values of [Dpg^7]N/OFQ-NH2 are 91 ± 4% and 7.90 (7.71-8.11).
The corresponding values for [Dpg^11]N/OFQ-NH2 are 86 ± 3% and 7.53 (7.17-8.04).
For the compound “[Iva^7]N/OFQ-NH2 [[Iva^7]N/OFQ-NH2 (diastereomer 1)]”, in the series on mouse vas deferens (Table 4), the Emax came to 91 ± 4% and the “pEC50 (CL 95%)” value is reported as 7.83 (7.74-7.92).
“[Iva^7]N/OFQ-NH2 [[Iva^7]N/OFQ-NH2 (diastereomer 2)]”: in the series on mouse vas deferens (Table 4), the Emax amounted to 88 ± 3% and the “pEC50 (CL 95%)” value is on record as 7.62 (7.32-7.92).
In the case of “[Nphe1,Arg14,Lys15]N/OFQ-NH2 (XGGFTGARKSARKRKNQ; Nphe1, C-terminal amide; Synthetized. Featured in patent as UFP-101, ref. Calòet al. Br J Pharmacol 136, 303-311, 2002) [reference compound]”, the “pA2 in competition with the endogenous agonist N/OFQ” value with mouse vas deferens (agonist N/OFQ) worked out at 6.91. In addition, the “pA2 in competition with UFP-112” value in the series on mouse vas deferens (agonist UFP-112) is 6.81.
